Measurements taken from PubChem BioAssay AID504479 (NMMLSC, 2011).
Calls of active or inactive are those of the source.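 How the source made its calls: active means GFP ratio vs DMSO below 0.65 in a strain, using the primary screen cutoff set for that strain's protein target; inactive means the rest.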

Tests used:
Assay in all cases: GFP reporter expression in TORC1-bypass yeast, mechanism study for yeast TOR pathway modulator project, S. cerevisiae, TORC1 bypass vs wild-type strains (AID 504479)
Details in all cases: fluorescence ratio vs DMSO, at 10 µM
BY4741 = tested on: BY4741
YBR084C-A = tested on: YBR084C-A
YCL025C = tested on: YCL025C
YCR005C = tested on: YCR005C
YKL103C = tested on: YKL103C
YNL142W = tested on: YNL142W
[1] = RPL19A-GFP in TORC1 bypass strain, stronger effect = lower value
[2] = AGP1-GFP in TORC1 bypass strain, stronger effect = higher value
[3] = CIT2-GFP in TORC1 bypass strain, stronger effect = higher value
[4] = LAP4-GFP in TORC1 bypass strain, stronger effect = higher value
[5] = MEP2-GFP in TORC1 bypass strain, stronger effect = higher value

SMILES	GFP ratio vs DMSO (BY4741)	GFP ratio vs DMSO (YBR084C-A; [1])	GFP ratio vs DMSO (YBR084C-A)	GFP ratio vs DMSO (YCL025C; [2])	GFP ratio vs DMSO (YCL025C)	GFP ratio vs DMSO (YCR005C; [3])	GFP ratio vs DMSO (YCR005C)	GFP ratio vs DMSO (YKL103C; [4])	GFP ratio vs DMSO (YKL103C)	GFP ratio vs DMSO (YNL142W; [5])	GFP ratio vs DMSO (YNL142W)
C/C(=N\NC(=O)c1ccc(C(C)(C)C)cc1)c1ccccn1	1.12 (inactive)	0.974	1.03 (inactive)	0.884	0.896 (inactive)	0.847	0.835 (inactive)	0.982	1.13 (inactive)	0.969	0.804 (inactive)
CO[C@H]1C[C@@H]2CC[C@@H](C)[C@@](O)(O2)C(=O)C(=O)N2CCCC[C@H]2C(=O)O[C@H]([C@H](C)C[C@@H]2CC[C@@H](O)[C@H](OC)C2)CC(=O)[C@H](C)/C=C(\C)[C@@H](O)[C@@H](OC)C(=O)[C@H](C)C[C@H](C)/C=C/C=C/C=C/1C	1.1 (inactive)	0.67	0.597	1.51	2.28	2.4	3.29	1.17	2.52	1.01	12.5
CC(=O)c1ccc(N2CCN(C(=O)c3ccc(Br)cc3)CC2)c(F)c1	1.18 (inactive)	1.33	1.28 (inactive)	1.42	1.17 (inactive)	1.12	1.85	1.27	1.94	1.25	1.3 (inactive)
c1ccc(-c2cccc(-c3ccccn3)n2)nc1	0.833 (inactive)	0.963	0.926 (inactive)	0.927	0.984 (inactive)	0.688	0.683 (inactive)	1.2	1.5	1	0.847 (inactive)
O=C(Oc1ccnc2cc(Cl)ccc12)N1CCCCCC1	1 (inactive)	0.82	1.19 (inactive)	1.12	1.78	0.708	0.635 (inactive)	0.997	1.15 (inactive)	0.897	1.96
O=C1ON=C(c2ccccc2)/C1=C/c1ccco1	0.912 (inactive)	0.972	0.965 (inactive)	0.65	0.853 (inactive)	0.825	1.34 (inactive)	1.17	1.64	1.01	1.03 (inactive)
O=C(Oc1c(Cl)cc(Cl)c2cccnc12)c1cccc([N+](=O)[O-])c1	0.774 (inactive)	1.12	1.18 (inactive)	0.717	0.875 (inactive)	0.791	1.07 (inactive)	1.15	1.68	1.01	0.95 (inactive)
Cn1ncc(S(=O)(=O)Cc2ccccc2)c(Cl)c1=O	1.31 (inactive)	0.786	0.76 (inactive)	0.801	0.984 (inactive)	1.02	1.15 (inactive)	1.56	1.63	0.971	1.46 (inactive)
O=C(OCn1ncc(Br)c(Br)c1=O)c1ccc(F)cc1	0.853 (inactive)	1.06	1.03 (inactive)	0.766	1.02 (inactive)	0.803	1.06 (inactive)	1.67	2.44	0.918	1.03 (inactive)
CC(Oc1ccc(Cl)cc1)C(=O)NNC(=S)NC(=O)c1ccco1 (stereo unspecified)	1.44 (inactive)	1.25	1.15 (inactive)	0.847	0.99 (inactive)	0.788	0.971 (inactive)	1.7	2.67	1.2	1.48 (inactive)
O=C(Oc1c(Cl)cc(Cl)c2cccnc12)c1ccco1	1.18 (inactive)	1.29	1.31 (inactive)	0.699	0.897 (inactive)	0.81	0.971 (inactive)	1.19	1.78	0.959	1.07 (inactive)
